What all share (assay type): functional
The subject of assay [1] is Nucleic Acid. Put plainly: Inhibition of DNA transcription by photoactivation at 10 uM.
In assay [2] the test system is THP-1. Put plainly: Apoptotic activity against illuminated human THP1 cells at 0.05 mM.
The subject of assay [3] is THP-1. The assay is described as follows: Apoptotic activity against human THP1 cells at 0.05 mM.

This note sets out measurements from ChEMBL document CHEMBL1139025, “Biological studies of photoinducible phenol quaternary ammonium derivatives” (2006).

Activity calls are given as the source filed them. The calls are words filed in the database; no cut-off is given here.

In the case of `C[N+](C)(C)Cc1cc(O)c(C[N+](C)(C)C)cc1O`, the result in assay [1] was Active.
For `C[N+](C)(C)Cc1cc(-c2ccc(O)c(C[N+](C)(C)C)c2)ccc1O.[I-].[I-]`, the figures for the Activity in assay [2] and in assay [3] were 62.03% and 3.01%, respectively. In addition, the result in assay [1] was Active.
